Measurements reported in US4922021A, “New alkylene diamine derivatives” (BASF Aktiensellschaft, priority 1981, dated 1990).

Columns and labels:
[1] = tested on: aconitin-induced arrhythmia; conditions: mouse, in vivo; for Delay in the appearance time of arrhythmia: po, 100 mg/kg
[2] = tested on: myocardial contractile force, arterial blood pressure and pulse rate; test: Inotropic effects (myocardial contractile force) in anaesthetized cats; type: in vivo; conditions: i.v.; for Contractility, change: basal 100
Protocol: Cats were anaesthetized with chloralose-urethane, a cannula was lead into the femoral artery, and the cannula was connected, through a Statham P 23 Db pressure sensor, to a Hellige recorder, where the arterial blood pressure and the pulse rate were recorded. The animals were respirated artifically, their chests were opened, and a strain gage was sutured on the left heart. The strain gage was connected to the Hellige recorder, and the variations in cardiac contractile force were recorded. The test compounds were administered to the animals intravenously through a cannula.

[3] = tested on: aconitin-induced arrhythmia; test: animal or person; conditions: Mus musculus, ip, read-out: Delay in time of appearance of arrhythmia
[4] = tested on: ouabain-induced arrhythmia; test: Ouabain-induced arrhythmia in anaesthetized dogs; type: in vivo
Protocol: Anaesthetized dogs of both sexes were treated intravenously with an infusion of 60 /ug/kg of ouabain to provoke arrhythmia, and the arrhythmic state was maintained with an ouabain dose 60 times less than the initial. In this way a ventricular tachycardia or tachyarrhythmia lasting for more than 180 minutes was provoked. The compounds were tested during this period. The period of recovered normal sinus rhythm was recorded, and when a compound exerted protective effect for more than 30 minutes, this fact was regarded as complete protection. The tests were performed essentially according to the method of Piascik et al. [Can.
Examination of the anti-arrhythmic effect in dogs anaesthetized with a 30
of pentobarbital sodium and treated with ouabain

[5] = tested on: barium chloride-induced arrhythmia; test: Barium chloride-induced arrhythmia in awake rabbits; type: in vivo; conditions: 2 mg/kg
Protocol: The compounds to be tested were administered intravenously to the animals 3 minutes after treating them with barium chloride, and the effect was recorded. It was regarded as a positive protecting effect when the compound suspended the arrhythmic condition for at least 3 minutes.

[6] = tested on: systemic and pulmonary circulation; test: Effects on the systemic and pulmonary circulation of awake cats; type: in vivo; conditions: i.v., 1.0 mg/kg; for Pulmonary arterial mean pressure, change: basal 13; for Arterial blood pressure, change: basal 102; for Pulse/minute, change: basal 190-200
Text: Cats were anaesthetized with pentobarbital, and cannulas were placed into the carotis artery and, through the jugular vein, into the pulmonary artery. An additional cannula was placed into the jugular vein for the administration of the test compound. The cannulas were filled up with heparin in order to avoid blood clotting. Thereafter the wounds were sutured, and the cannulas were led below a bandage placed around the neck of the animal. 3 days after this operation the systemic arterial blood pressure, the pulmonary arterial pressure and the pulse rate of the awake animals were measured with a Hellige recorder, connected to the cannulas through a Statham P 23 Db type pressure transducer.

[7] = tested on: right ventricle; test: Electrophysiological tests on isolated rabbit heart, right ventricle; set-up: species or system rabbits; conditions: 2 mg/l, average
Protocol: (§1) Heart of rabbits of both sexes, weighing 1-2 kg, were removed, the right and left auricles and a segment of the right ventricle were prepared and placed into a vessel filled with nutrient solution. Bipolar platinum electrodes (a stimulating electrode and a lead electrode) were placed onto the organ strips, and the electric stimulus threshold and the speed of impulse condution were measured. The effective refractory period determined on the basis of the maximum driving frequency.

[8] = tested on: fibrillation threshold of the heart; test: Determination of the fibrillation threshold in anaesthetized cats; type: in vivo
Text: The chests of the cats were opened under chloralose-urethane anaesthesia a bipolar stimulating electrode was fixed onto the heart, and the heart was stimulated electrically with a frequency of 20 Hz, under continuously increasing current strength, until a fibrillo-flattern could be observed. This current strength was regarded as the fibrillation threshold of the animal.

[9] = tested on: left auricle; test: Electrophysiological tests on isolated rabbit heart, left auricle; set-up: species or system rabbits; conditions: 2 mg/l, average
Protocol: as §1

[10] = in vivo; conditions: mouse, ip
[11] = J. Med. Chem. 6, 705 (1963); cited from earlier work
[12] = i.v., 0.5 mg/kg, protection > 30 min = complete
[13] = i.v., 1.0 mg/kg, protection > 30 min = complete
[14] = i.v., 2.0 mg/kg, protection > 30 min = complete
[15] = i.v., 4.0 mg/kg, protection > 30 min = complete
[16] = i.v., 8.0 mg/kg, protection > 30 min = complete
[17] = i.v., arrhythmia suspended for at least 3 minutes

Cc1cccc(C)c1OCC(C)N.Cl (stereo not shown) [1-(2,6-Dimethylphenoxy)-2-aminopropane hydrochloride, reference compound]
Delay in the appearance time of arrhythmia [1]: +82.0%
Arterial blood pressure, change ([2]; 0.5 mg/kg): -45 mmHg
Pulse/minute, change ([2]; 0.5 mg/kg): -40 min⁻¹
Contractility, change ([2]; 0.5 mg/kg): -29%
Arterial blood pressure, change ([2]; 1.0 mg/kg): -40 mmHg
Pulse/minute, change ([2]; 1.0 mg/kg): -50 min⁻¹
Contractility, change ([2]; 1.0 mg/kg): -32%
Arterial blood pressure, change ([2]; 2.0 mg/kg): -60 mmHg
Pulse/minute, change ([2]; 2.0 mg/kg): -50 min⁻¹
Contractility, change ([2]; 2.0 mg/kg): -38%
Arterial blood pressure, change ([2]; 5.0 mg/kg): -65 mmHg
Pulse/minute, change ([2]; 5.0 mg/kg): -50 min⁻¹
Contractility, change ([2]; 5.0 mg/kg): -57%
change in vivo at 5 mg/kg [3]: 3.5%
change in vivo at 10 mg/kg [3]: 7.7%
change in vivo at 25 mg/kg [3]: 33.3%
change in vivo at 50 mg/kg [3]: 83.1%
change in vivo at 75 mg/kg [3]: 162%
Average time of partial suspension ([4]; dog, in vivo, iv, 0.5 mg/kg): 0.5 min
Complete suspension, number of cases ([4]; dog, in vivo, iv, 0.5 mg/kg): 1/15
Average time of partial suspension ([4]; dog, in vivo, iv, 1 mg/kg): 2.6 min
Complete suspension, number of cases ([4]; dog, in vivo, iv, 1 mg/kg): 1/15
Average time of partial suspension ([4]; dog, in vivo, iv, 2 mg/kg): 2.9 min
Complete suspension, number of cases ([4]; dog, in vivo, iv, 2 mg/kg): 3/14
Average time of partial suspension ([4]; dog, in vivo, iv, 4 mg/kg): 1.4 min
Complete suspension, number of cases ([4]; dog, in vivo, iv, 4 mg/kg): 4/9
Average time of partial suspension ([4]; dog, in vivo, iv, 8 mg/kg): 10.3 min
Complete suspension, number of cases ([4]; dog, in vivo, iv, 8 mg/kg): 2/5
Protecting effect, number of animals ([5]; rabbit, in vivo, iv): 4/10
Pulmonary arterial mean pressure, change [6]: +6 mmHg
Arterial blood pressure, change [6]: -39 mmHg
Pulse/minute, change [6]: -66 min⁻¹
Change of the conduction time [7]: +11%
Change of the effective refractory period [7]: +28%
Change of the electric stimulus threshold [7]: +14%
Effect on the fibrillation threshold ([8]; in vivo, iv, 0.5 mg/kg): +9.4%
Effect on the fibrillation threshold ([8]; in vivo, iv, 1 mg/kg): +12.9%
Effect on the fibrillation threshold ([8]; in vivo, iv, 2 mg/kg): +24.8%
Effect on the fibrillation threshold ([8]; in vivo, iv, 4 mg/kg): +34.0%
Change of the conduction time [9]: +24%
Change of the effective refractory period [9]: +32%
Change of the electric stimulus threshold [9]: +36%

CCC(N)CNc1c(C)cccc1C (stereo not shown) [1-(2,6-dimethylphenyl-amino)-2-amino-butane]
Delay in the appearance time of arrhythmia [1]: +33.0%
change in vivo at 10 mg/kg [3]: 3%
change in vivo at 25 mg/kg [3]: 40.8%
change in vivo at 50 mg/kg [3]: 104%
change in vivo at 75 mg/kg [3]: 149%

Cc1cccc(C)c1NCC(C)N (stereo not shown) [1-(2,6-dimethylphenyl-amino)-2-amino-propane]
Delay in the appearance time of arrhythmia [1]: +27.0%
LD50 [10]: 135 mg/kg
change in vivo at 25 mg/kg [3]: 17%
change in vivo at 50 mg/kg [3]: 87.3%
change in vivo at 100 mg/kg [3]: 124%

Cc1cccc(C)c1NCC(C)N(C)C (stereo not shown) [1-(2,6-dimethylphenyl-amino)-2-dimethylamino-propane]
column headed by drawing 10 (apparently LD50/ED50) ([1]; ip): 5.7
Delay in the appearance time of arrhythmia [1]: +74.0%
LD50 [10]: 114 mg/kg
Arterial blood pressure, change ([2]; 0.5 mg/kg): -7 mmHg
Pulse/minute, change ([2]; 0.5 mg/kg): +10 /minute
Contractility, change ([2]; 0.5 mg/kg): -5%
Arterial blood pressure, change ([2]; 1.0 mg/kg): -10 mmHg
Pulse/minute, change ([2]; 1.0 mg/kg): +15 /minute
Arterial blood pressure, change ([2]; 2.0 mg/kg): -30 mmHg
Pulse/minute, change ([2]; 2.0 mg/kg): -10 min⁻¹
Arterial blood pressure, change ([2]; 5.0 mg/kg): -40 mmHg
Pulse/minute, change ([2]; 5.0 mg/kg): -25 min⁻¹
Contractility, change ([2]; 5.0 mg/kg): -33%
change in vivo at 10 mg/kg [3]: 17.2%
change in vivo at 25 mg/kg [3]: 72.7%
change in vivo at 50 mg/kg [3]: 138%
change in vivo at 75 mg/kg [3]: 212%
Average time of partial suspension ([4]; i.v., 0.5 mg/kg): 0.4 min
Complete suspension, number of cases [4, 12]: 0/15
Average time of partial suspension ([4]; i.v., 1.0 mg/kg): 1.5 min
Complete suspension, number of cases [4, 13]: 0/15
Average time of partial suspension ([4]; i.v., 2.0 mg/kg): 5.7 min
Complete suspension, number of cases [4, 14]: 4/15
Average time of partial suspension ([4]; i.v., 4.0 mg/kg): 6.4 min
Complete suspension, number of cases [4, 15]: 3/12
Average time of partial suspension ([4]; i.v., 8.0 mg/kg): 10.0 min
Complete suspension, number of cases [4, 16]: 5/9
Protecting effect, number of animals [5, 17]: 5/10
Pulmonary arterial mean pressure, change [6]: +2.8 mmHg
Arterial blood pressure, change [6]: +2 mmHg
Pulse/minute, change [6]: -9 min⁻¹
Change of the conduction time [7]: +12%
Change of the effective refractory period [7]: +18%
Change of the electric stimulus threshold [7]: +6%
Effect on the fibrillation threshold ([8]; i.v., 0.5 mg/kg): +8.6%
Effect on the fibrillation threshold ([8]; i.v., 1.0 mg/kg): +12.2%
Effect on the fibrillation threshold ([8]; i.v., 2.0 mg/kg): +27.0%
Effect on the fibrillation threshold ([8]; i.v., 4.0 mg/kg): +53.9%
Change of the conduction time [9]: +12%
Change of the effective refractory period [9]: +20%
Change of the electric stimulus threshold [9]: +32%

Cc1cccc(C)c1NCCC(C)N (stereo not shown) [1-(2,6-dimethylphenyl-amino)-3-amino-butane]
Delay in the appearance time of arrhythmia [1]: +84.0%
change in vivo at 10 mg/kg [3]: 0%
change in vivo at 25 mg/kg [3]: 48%
change in vivo at 50 mg/kg [3]: 87%
change in vivo at 75 mg/kg [3]: 135%
Average time of partial suspension ([4]; i.v., 0.5 mg/kg): 0.3 min
Complete suspension, number of cases [4, 12]: 1/16
Average time of partial suspension ([4]; i.v., 1.0 mg/kg): 0.8 min
Complete suspension, number of cases [4, 13]: 1/15
Average time of partial suspension ([4]; i.v., 2.0 mg/kg): 3.7 min
Complete suspension, number of cases [4, 14]: 2/15
Average time of partial suspension ([4]; i.v., 4.0 mg/kg): 5.4 min
Complete suspension, number of cases [4, 15]: 7/14
Average time of partial suspension ([4]; i.v., 8.0 mg/kg): 6.5 min
Complete suspension, number of cases [4, 16]: 3/5
Protecting effect, number of animals [5, 17]: 5/10
Effect on the fibrillation threshold ([8]; i.v., 0.5 mg/kg): +2.3%
Effect on the fibrillation threshold ([8]; i.v., 1.0 mg/kg): +3.0%
Effect on the fibrillation threshold ([8]; i.v., 2.0 mg/kg): +16.5%
Effect on the fibrillation threshold ([8]; i.v., 4.0 mg/kg): +52.9%

Cc1cccc(C)c1NC(C)CN.Cl.Cl (stereo not shown) [1-Amino-2-(2,6-dimethylphenyl-amino)-propane dihydrochloride]
Delay in the appearance time of arrhythmia [1]: +41.0%
LD50 [10]: 155 mg/kg
change in vivo at 25 mg/kg [3]: 16.6%
change in vivo at 50 mg/kg [3]: 60%
change in vivo at 100 mg/kg [3]: 127%

Cc1cccc(C)c1N(C)CC(C)N(C)C (stereo not shown) [1-[N-methyl-N-(2,6-dimethylphenyl)-amino]-2-dimethylamino-propane]
change in vivo at 50 mg/kg [3]: 78%

Cc1cccc(C)c1NCCN [N-(2,6-dimethylphenyl)-ethylenediamine]
hypotensive effects [11]: hypotensive effects

CCN(CC)CC(=O)Nc1c(C)cccc1C.Cl [N-(diethylamino-acetyl)-2,6-dimethylaniline hydrochloride, reference compound]
Delay in the appearance time of arrhythmia [1]: +38.0%
change in vivo at 5 mg/kg [3]: 1%
change in vivo at 10 mg/kg [3]: 16.2%
change in vivo at 25 mg/kg [3]: 33.7%
change in vivo at 40 mg/kg [3]: 70.1%
Average time of partial suspension ([4]; i.v., 0.5 mg/kg): 0.5 min
Complete suspension, number of cases [4, 12]: 0/15
Average time of partial suspension ([4]; i.v., 1.0 mg/kg): 1.6 min
Complete suspension, number of cases [4, 13]: 0/15
Average time of partial suspension ([4]; i.v., 2.0 mg/kg): 2.5 min
Complete suspension, number of cases [4, 14]: 1/15
Average time of partial suspension ([4]; i.v., 4.0 mg/kg): 2.5 min
Complete suspension, number of cases [4, 15]: 3/14
Average time of partial suspension ([4]; i.v., 8.0 mg/kg): 7.5 min
Complete suspension, number of cases [4, 16]: 2/11
Protecting effect, number of animals [5, 17]: 2/10
Effect on the fibrillation threshold ([8]; i.v., 0.5 mg/kg): 0%
Effect on the fibrillation threshold ([8]; i.v., 1.0 mg/kg): +2.0%
Effect on the fibrillation threshold ([8]; i.v., 2.0 mg/kg): +17.7%
Effect on the fibrillation threshold ([8]; i.v., 4.0 mg/kg): +39.1%

CCN(CCN)c1c(C)cccc1C [N-ethyl-N-(2,6-dimethylphenyl)-ethylenediamine]
hypotensive effects [11]: hypotensive effects

Cc1cccc(C)c1N(C)CCN [N-methyl-N-(2,6-dimethylphenyl)-ethylenediamine]
hypotensive effects [11]: hypotensive effects
